In patent publication US20250312320A1, “METHOD AND TREATMENT FOR OSTEOARTHRITIS AND DISEASES OF CHONDROCYTE HYPERTROPHY” (The Royal Veterinary College, priority 2022, published 2025):
Entries after “also recorded” stand apart in the source; their conditions may differ.

Assays:
ATDC5 micromasses [1] = experiment: Dose response of CDK8i on genes of interest in hypertrophic ATDC5 micromasses; format: cell-based, mouse; conditions: for gene expression of OA protective genes (TIMP4, MATN3, SMOC2, CNMD) / gene expression of hypertrophic/mineralised matrix marker IBSP: 1 μM, 100 nM or 10 nM, 14 day hypertrophic differentiation, vs DMSO; for dose response in gene expression: efficacy down to: 14 days differentiation to hypertrophy
Procedure: To confirm that the gene expression profile observed in the day 7 RNAseq dataset was reproducible in hypertrophic cells, we selected genes of interest from the RNAseq dataset and analysed gene expression analysis on hypertrophic ATDC5 cells. 2.7×10^5 ATDC5 cells were cultured in 10 μl micromasses in the presence of BI1347 and MSC2530818 at concentrations 1 μM, 100 nM, 10 nM and DMSO control for 7 days in differentiation media before switching to mineralisation media for 7 days. On day 14 cells were processed for qPCR analysis as previously described.

ATDC5 micromass = experiment: Dose response of CDK8 inhibitors on ATDC5 micromass (alizarin red / alcian blue); format: cell-based, mouse; conditions: all concentrations (10 μM down to 0.1 nM), day 14
Procedure: (§1) In brief, 2 μl micromasses were seeded in a 96-well plate and cultured as previous in the presence of BI1347 and additional CDK8i compounds namely BRD6989, AS2863619, SEL120-34A, MSC2530818 and CCT251545. Compound concentrations were titrated 10-fold from 10 μM down to 0.1 nM. On day 14 micromasses were fixed, stained and subsequently leached to allow for dose response analysis to be conducted.
as §1, with “seeded on” for “seeded in”, “additional Mediator kinase inhibitor” for “additional CDK8i”

[2] = test system: MC3T3 (subclone 14) osteoblast-like cells; experiment: MC3T3 osteoblast-like cell mineralisation (alizarin red); format: cell-based
Procedure: 2×10^4 MC3T3 (subclone 14) osteoblast-like cells were seeded on a 24-well plate and cultured for 2 days in osteoblast growth media (Alpha-MEM supplemented with 10% FBS, 1% Ab/Am) before induction of differentiation with osteoblast differentiation media (Alpha-MEM, 10% FBS, 1% Ab/Am, 50 μg/ml ascorbic acid, 5 mM β-glycerophosphate) in the presence of 1 μM BI1347 or DMSO, with media changes every 2-3 days.
Another MC3T3 differentiation method was also carried out with MSC2530818 treatment. Briefly, MC3T3 cells were seeded as above and differentiated for 7 days in osteogenic induction media (Alpha-MEM, 10% FBS, 1% Ab/Am, 50 μg/ml ascorbic acid) with DMSO or 100 nM MSC2530818, before switching to osteogenic induction media with 2 mM β-glycerophosphate in the presence of 100 nM MSC2530818 or DMSO.
Cells were fixed in 95% ice-cold methanol and stained with 1% Alizarin Red on day 7, 10 and 14 of culture for BI1347 and on day 14 only for MSC2530818 treated cells to observe effects of compounds on mineralization compared to DMSO control. Alizarin red stain was leached and measured as previously described.

ATDC5 micromasses [3] = experiment: Phased dosing of CDK8i on ATDC5 micromasses (alcian blue / alizarin red); format: cell-based, mouse; conditions: 1 μM, phased dosing 2, 4, 6, 9, 11, 14 days, read day 14; all timepoints
Procedure: To understand the longevity of the CDK8i effect observed with BI1347 and MSC2530818, ATDC5 micromasses were exposed to a phased dosing regimen. This consisted of treating standard 10 μl ATDC5 micromasses with differentiation media containing 1 μM of BI1347 or MSC2530818 for 2 days before switching to control differentiation media for the remaining culture period ending on day 14 of differentiation. This was repeated for 4, 6, 9, 11 and 14 days of treatment. On day 14, cells were fixed and stained with alizarin red or alcian blue as previously described.

[4] = test system: monolayer culture of ATDC5 cells; experiment: Monolayer culture of ATDC5 cells, GAG deposition; format: cell-based, mouse; conditions: monolayer instead of micromass
[5] = test system: primary equine articular chondrocytes; experiment: Primary equine articular chondrocytes in chondrogenesis and IL1β OA disease model: gene expression; format: cell-based; conditions: 100 nM, N=2
Procedure: Articular cartilage was isolated, placed into a petri dish containing phosphate buffer saline (PBS) supplemented with 2% Ab/Am (PBS-Ab/Am) and transferred to a laminar flow hood for processing. Cartilage shavings were minced using a sterile scalpel to approximately 1 mm^3 and washed in fresh PBS-Ab/Am by centrifugation at 500×g for 10 minutes. Supernatant was removed and the cartilage pellet resuspended in 5 ml TrypLE™ (Gibco) before incubation at 37° C. for 10 minutes with gentle agitation. Dissociated cartilage fragments were pelleted and washed to remove excess TrypLE and resuspended in DMEM-complete media (DMEM/F12 (Gibco), 1% Ab/Am, 10% FBS) supplemented with 2 mg/ml Collagenase Type II and incubated overnight at 37° C. with gentle agitation. The cartilage digest was pelleted, washed and subsequently resuspended in DMEM-complete. Released cells were counted using a haematocytometer and seeded at 10,000 cells per cm^2. The cultures were incubated at 37° C., 5% CO2 in a humidified incubator for 2 days before refreshing DMEM-complete every 2 days until confluency. For differentiation experiments, primary chondrocytes were differentiated in DMEM/F12 containing 2% FBS, 1% Ab/Am, 1× Insulin-Transferrin-Selenium premix, 10 ng/ml TGFβ3 (primary chondrocyte differentiation media).
Additional experiments were carried out on primary chondrocytes (equine, canine and human) and ihMSC (TERT immortalised human mesenchymal stromal cell line) to investigate whether CDK8i protects from IL-1β induced degradation when added throughout the entirety of differentiation/IL-1β treatment. Briefly, ihMSCs were seeded at a density of 5×10^4 cells per 10 μl micromass and differentiated in ihMSC chondrogenic media (1% FBS, 1% Ab/Am, 1× Insulin-Transferrin-Selenium premix, 10 μM Y-27632, 100 nM dexamethasone, 50 μg/ml ascorbic acid, 20 ng/ml TGF-β3 (Peprotech)). Primary chondrocytes were seeded at 2.7×10^5 cells per 10 μl micromass and differentiated in primary chondrocyte differentiation media. All micromasses were differentiated for 12 days in the presence of 100 nM […] or DMSO. Some micromasses were processed for gene expression analysis/alcian blue staining on day 12, whilst others were treated with IL-β media (1% FBS, 1% Ab/Am, 10 ng/ml IL-1B) and CDK8i for 48-hours before processing for alcian blue staining/gene expression analysis on day 14 as previously described.

SMILES: CN(C)C(=O)Cn1cc(-c2ccc(-c3cncc4ccccc34)cc2)cn1 [BI1347]
- gene expression of OA protective genes (TIMP4, MATN3, SMOC2, CNMD) (ATDC5 micromasses [1]): dose dependent increase
- gene expression of hypertrophic/mineralised matrix marker IBSP (ATDC5 micromasses [1]): dose dependent decrease
- dose response in gene expression: efficacy down to (ATDC5 micromasses [1]): 10 nM
- alcian blue staining (GAG deposition) (ATDC5 micromass): maintained
- mineralisation by alizarin red stain vs DMSO ([2]; 1 μM, over 14 days culture): completely inhibited mineralisation; also recorded: reduced mineralisation
- Glycosaminoglycan (GAG) deposition (leached alcian blue absorbances) vs DMSO (ATDC5 micromasses [3]): increase in GAG deposition
- Mineralization (leached alizarin red absorbances) vs DMSO (ATDC5 micromasses [3]): decrease in mineralisation
- changes in GAG deposition [4]: not seen

SMILES: Cc1n[nH]c2ncc(C(=O)N3CCC[C@H]3c3ccc(Cl)cc3)cc12 [MSC2530818]
- ADAMTS5 gene expression, reduction vs DMSO ([5]; OA disease model (+IL1β)): 2.7 fold
- CNMD gene expression, increase vs DMSO ([5]; OA disease model (+IL1β)): 70 fold
- COL2A1 gene expression, increase vs DMSO ([5]; OA disease model (+IL1β)): 11 fold
- SMOC2 gene expression, increase vs DMSO ([5]; OA disease model (+IL1β)): 3 fold
- ACAN gene expression, increase vs DMSO ([5]; OA disease model (+IL1β), ns): 1.8 fold
- MATN3 gene expression vs DMSO ([5]; OA disease model (+IL1β), ns): 2 fold
- TIMP4 gene expression, increase vs DMSO ([5]; OA disease model (+IL1β), ns): 1.14 fold
- CNMD gene expression, increase vs DMSO ([5]; chondrogenic (−IL1β)): 41 fold
- SMOC2 gene expression, increase vs DMSO ([5]; chondrogenic (−IL1β)): 2.3 fold
- TIMP4 gene expression vs DMSO ([5]; chondrogenic (−IL1β)): no change
- ACAN gene expression, increase vs DMSO ([5]; chondrogenic (−IL1β), ns): 2 fold
- COL2A1 gene expression, decrease vs DMSO ([5]; chondrogenic (−IL1β), ns): 1.25 fold
- MATN3 gene expression vs DMSO ([5]; chondrogenic (−IL1β), ns): 2 fold
- gene expression of OA protective genes (TIMP4, MATN3, SMOC2, CNMD) (ATDC5 micromasses [1]): dose dependent increase
- gene expression of hypertrophic/mineralised matrix marker IBSP (ATDC5 micromasses [1]): dose dependent decrease
- dose response in gene expression: efficacy down to (ATDC5 micromasses [1]): 10 nM
- alcian blue staining (GAG deposition) (ATDC5 micromass): maintained
- mineralisation by alizarin red stain vs DMSO ([2]; 100 nM, 14 days (AA day 0-7, AA + 2 mM BGP day 7-14)): mineralisation was ablated
- mineralisation by alizarin red stain vs DMSO ([2]; 100 nM, 14 days (AA day 0-7, AA + 2 mM BGP day 7-14), listed as MSC): ablation of mineralization
- Glycosaminoglycan (GAG) deposition (leached alcian blue absorbances) vs DMSO (ATDC5 micromasses [3]): increase in GAG deposition
- Mineralization (leached alizarin red absorbances) vs DMSO (ATDC5 micromasses [3]): decrease in mineralisation
- changes in GAG deposition [4]: not seen
